Measured values: patent US4931444A, “5-lipoxygenase inhibiting 4-(4-phenyl-1-piperazinyl)phenols” (Janssen Pharmaceutica N.V., priority 1989, dated 1990)

What was measured:
5-lipoxygenase = molecular target: T1, 5-lipoxygenase (Rattus norvegicus, UniProt P12527); assay: Arachidonate 5-lipoxygenase inhibition in Rat Basophilic Leukemia Cells Supernatant; type: biochemical; design: dose or concentration left out as unconfirmed; conditions: Column A, 5-HPETE and LTB4 formation; for inhibition: read-out: 5-lipoxygenase inhibition in RBL cells supernatant, % inhibition
T1 construct: The supernatant, aliquoted and stored at -70° C., was used as the source of 5-lipoxygenase activity; endogenous in cells; host or cells: Rat basophilic leukemia (RBL) cells, 10,000×g supernatant of the sonicate (crude, not purified)
T1 sequence (P12527 1-673): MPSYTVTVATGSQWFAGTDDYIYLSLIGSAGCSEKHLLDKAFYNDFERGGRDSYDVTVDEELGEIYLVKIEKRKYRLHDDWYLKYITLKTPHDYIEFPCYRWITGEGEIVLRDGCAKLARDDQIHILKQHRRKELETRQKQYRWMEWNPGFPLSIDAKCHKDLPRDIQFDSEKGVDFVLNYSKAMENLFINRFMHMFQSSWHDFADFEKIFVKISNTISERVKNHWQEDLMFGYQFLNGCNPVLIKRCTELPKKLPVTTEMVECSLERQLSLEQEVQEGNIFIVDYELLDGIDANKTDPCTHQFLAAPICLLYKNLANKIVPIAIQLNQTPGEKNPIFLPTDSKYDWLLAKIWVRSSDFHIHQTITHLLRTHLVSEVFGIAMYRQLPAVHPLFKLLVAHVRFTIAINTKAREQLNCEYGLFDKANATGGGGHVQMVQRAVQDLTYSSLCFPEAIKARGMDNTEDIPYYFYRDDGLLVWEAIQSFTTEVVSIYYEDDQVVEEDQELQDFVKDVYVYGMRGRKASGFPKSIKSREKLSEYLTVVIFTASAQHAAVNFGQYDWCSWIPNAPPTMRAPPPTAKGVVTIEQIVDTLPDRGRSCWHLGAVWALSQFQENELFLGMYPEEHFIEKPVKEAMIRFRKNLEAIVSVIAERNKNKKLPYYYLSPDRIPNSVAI

[1] = test system: Dextran-induced edema formation in the ears of mice; assay: Inhibition of Dextran-induced edema formation in the ears of mice; type: in vivo, male Swiss mice; conditions: Column B, at 10 mg/kg body weight, 1 h before dextran; for inhibition in vivo at 10 mg/kg: Mus musculus, po, read-out: inhibition of Dextran-induced blueing of the ears of mice, % inhibition
Description: Inhibition of Dextran-induced edema formation in the ears of mice.
Intravenous injection of Dextran T500® (Pharmacia) and pontamine sky-blue dye into mice results in increased vascular permeability and edema formation, characterized by an intense blueing of the ears. Determination of the amount of extravasated dye is presumed to yield a quantitative measure of the 5-lipoxygenase inhibiting activity of the test compounds (Drug. Dev. Res. 8, 213-218, 1986). Unfasted male Swiss mice weighing 24-26 g were used in the experiments which were performed between 13.00 pm and 17.00 pm at an ambient temperature of 22±1° C. The mice were treated orally with a test compound of formula (I) dissolved in a volume of […] of either polyethyleneglycol (PEG 200) or hydroxypropyl cyclodextrine at doses varying between 1.25 and 40 mg per kg bodyweight. In control experiments the mice were administered an identical amount of solvent alone. One hour after treatment there was injected intravenously an isotonic saline solution containing 60 mg/ml Dextran T500® and 13 mg/ml pontamine sky-blue dye in a volume of 0.1 ml per 10 g bodyweight. One hour and forty-five minutes later the animals were sacrificed by ether and their ears were removed. Extraction and quantification of the extravasated dye were performed as described (Drug Dev. Res. 8, 213-218, 1986). The calculated percentage of inhibition of ear blueing upon administration of a compound of formula (I) at a dose of 10 mg/kg bodyweight is shown in the second column of table 12.

Row | SMILES | inhibition (5-lipoxygenase) [%] | 5-lipoxygenase inhibition in RBL cells supernatant, % inhibition (5-lipoxygenase) [%] | inhibition in vivo at 10 mg/kg [1] [%] | inhibition of Dextran-induced blueing of the ears of mice, % inhibition ([1]; oral) [%]
1 | Cc1nn(C(C)C(=O)c2ccc(Br)cc2)c(=O)n1-c1ccc(N2CCN(c3ccc(O)cc3)CC2)cc1 (stereo not shown) [Compound 7.57, 2-[2-(4-bromophenyl)-1-methyl-2-oxoethyl]-2,4-dihydro-4-[4-[4-(4-hydroxyphenyl)-1-piperazinyl]phenyl]-5-methyl-3H-1,2,4-triazol-3-one] | 90 | – | 82 | –
2 | CCC(C)n1nc(C)n(-c2ccc(N3CCN(c4ccc(O)c(C)c4)CC3)cc2)c1=O (stereo not shown) [Compound 7.38] | 100 | – | 88 | –
3 | CC(C(O)c1ccc(Cl)cc1Cl)n1ncn(-c2ccc(N3CCN(c4ccc(O)cc4)CC3)cc2)c1=O (stereo not shown) [Compound 7.23] | – | 91 | – | 94

Further lines, with some results ahead:

Row | inhibition (5-lipoxygenase) [%] | 5-lipoxygenase inhibition in RBL cells supernatant, % inhibition (5-lipoxygenase) [%] | SMILES | inhibition in vivo at 10 mg/kg [1] [%] | inhibition of Dextran-induced blueing of the ears of mice, % inhibition ([1]; oral) [%]
4 | 58 | – | CCCn1c(=O)n(CCC)c(=O)n(-c2ccc(N3CCN(c4ccc(O)cc4)CC3)cc2)c1=O [Compound 9.03] | 94 | –
5 | 69 | – | CC12CCCN1C(=O)N(c1ccc(N3CCN(c4ccc(O)cc4)CC3)cc1)C2=O (stereo not shown) [Compound 5.10] | 75 | –
